# Measured values from US12570647B2 (Saint Louis University, priority 2021, dated 2026).
# Where two headings read alike, the source gives them in different places.
# Experiments:
# S. aureus ATCC 25923 = tested on: S. aureus ATCC 25923; parameters: key: R: resistance; S: sensitive; I: intermediate; conditions: Table 2; cited from earlier work
# S. aureus AR222 [1] = tested on: S. aureus AR222; parameters: key to Antibiotic susceptibility (R/S/I): R: resistance; S: sensitive; I: intermediate; conditions: Table 2; S. aureus AR222 (CDC strain); cited from earlier work
# S. aureus AR217 = tested on: S. aureus AR217; parameters: key to Antibiotic susceptibility (R/S/I): R: resistance; S: sensitive; I: intermediate; conditions: S. aureus AR217 (CDC strain), cited from earlier work; for Antibiotic susceptibility (R/S/I): Table 2
# S. aureus AR215 = tested on: S. aureus AR215; parameters: key to Antibiotic susceptibility (R/S/I): R: resistance; S: sensitive; I: intermediate; conditions: S. aureus AR215 (CDC strain), cited from earlier work; for Antibiotic susceptibility (R/S/I): Table 2
# S. aureus ATCC25923 = assay: S. aureus MIC80 determination, broth microdilution (CLSI) in CAMHB; type: cell-based; conditions: S. aureus ATCC 25923
# Protocol: (§1) S. Aureus MIC80 determinations in S. aureus ATCC25923 or in multidrug-resistant strains AR215, AR217 and AR255. MIC80's were determined by the broth microdilution method recommended by the Clinical and Laboratory Standards Institute (CLSI) in Cation-adjusted Mueller-Hinton broth (CAMHB). (Cao et al., 2018). In the preliminary screening, three compound concentrations were used: 5.8, 20.4, and 71.4 μM; for quantitative MIC80 measurements, a 1.5-fold dilution series of the compounds was prepared in CAMHB. Overnight bacterial culture was added to the diluted compounds in a 96-well plate after adjusting the bacterial concentration to achieve a 5×10^5 CFU/mL final concentration. After 16-24 h incubation at 35±2° C., the plates were read at 600 nm in a microplate reader. The MIC80 was defined as the concentration of an antibacterial agent that inhibited bacteria growth ≥80% compared to vehicle-treated control cultures. All values were determined at least twice independently, and the average number is reported.
# [2] = tested on: S. aureus AR217 (MRSA, multidrug-resistant strain); assay: as above; type: cell-based; conditions: Table 2
# Protocol: as §1
# (§2) AR215, AR217, and AR222 were obtained from the Centers for Disease Control and Prevention (CDC). AR215 and AR217 are cefoxitin-screen positive (resistant to cefoxitin) and resistant to oxacillin, which are MRSA strains. AR215 is also resistant to clindamycin, erythromycin, levofloxacin, and penicillin. AR217 is also resistant to levofloxacin, penicillin, and Trimethoprim-sulfamethoxazole. AR222 is only resistant to penicillin.
# [3] = tested on: S. aureus AR215 (MRSA, multidrug-resistant strain); assay: as above; type: cell-based; conditions: Table 2
# Protocol: as §1, §2
# S. aureus AR222 [4] = assay: as above; type: cell-based; conditions: Table 2
# Protocol: as §1, §2
# [5] = Staphylococcus aureus, ATCC25923, Table 1, growth inhibition ≥80% vs vehicle, 16-24 h, read-out: ATCC 25923 MIC80
# [6] = Staphylococcus aureus, ATCC25923, Table 2, read-out: MIC80
compound,measurement,setting,value
"CC[C@H]1OC(=O)[C@H](C)[C@@H](O[C@H]2C[C@@](C)(OC)[C@@H](O)[C@H](C)O2)[C@H](C)[C@@H](O[C@@H]2O[C@H](C)C[C@H](N(C)C)[C@H]2O)[C@](C)(O)C[C@@H](C)C(=O)[C@H](C)[C@@H](O)[C@]1(C)O [ERY, Erythromycin]",Antibiotic susceptibility (R/S/I),S. aureus ATCC 25923,S
same,Antibiotic susceptibility (R/S/I),S. aureus AR222 [1],S
same,Antibiotic susceptibility (R/S/I),S. aureus AR217,S
same,Resistance of the strain to the antibiotic,S. aureus AR215,resistant
same,Antibiotic susceptibility (R/S/I),S. aureus AR215,R
"Cc1ccoc1C(=O)N(CCCn1ccnc1)c1nc2c(C)cc(Cl)cc2s1 [Example 15, N-(3-(1H-imidazol-1-yl)propyl)-N-(6-chloro-4-methylbenzo[d]thiazol-2-yl)-3-methylfuran-2-carboxamide]",MIC80,S. aureus ATCC25923; [5],< 1.7 µM
same,MIC80,S. aureus ATCC25923; [6],1.8 µM
same,MIC80,"[2]; Staphylococcus aureus, MRSA",4 µM
same,MIC80,"[3]; Staphylococcus aureus, MRSA",13.3 µM
same,MIC80,S. aureus AR222 [4]; Staphylococcus aureus,2.6 µM
"Cc1ccc(C(=O)N(CCCn2ccnc2)c2nc3c(C)cc(Cl)cc3s2)o1 [Example 4, N-(3-(1H-imidazol-1-yl)propyl)-N-(6-chloro-4-methylbenzo[d]thiazol-2-yl)-5-methylfuran-2-carboxamide]",MIC80,S. aureus ATCC25923; [5],2.6 µM
same,MIC80,S. aureus ATCC25923; [6],0.78 µM
same,MIC80,"[2]; Staphylococcus aureus, MRSA",5.9 µM
same,MIC80,"[3]; Staphylococcus aureus, MRSA",8.9 µM
same,MIC80,S. aureus AR222 [4]; Staphylococcus aureus,0.78 µM
Gentamicin,Antibiotic susceptibility (R/S/I),S. aureus ATCC 25923,S
same,Antibiotic susceptibility (R/S/I),S. aureus AR222 [1],S
same,Antibiotic susceptibility (R/S/I),S. aureus AR217,S
same,Antibiotic susceptibility (R/S/I),S. aureus AR215,S
"CC(=O)NC[C@H]1CN(c2ccc(N3CCOCC3)c(F)c2)C(=O)O1 [LZD, Linezolid]",Antibiotic susceptibility (R/S/I),S. aureus ATCC 25923,S
same,Antibiotic susceptibility (R/S/I),S. aureus AR222 [1],S
same,Antibiotic susceptibility (R/S/I),S. aureus AR217,S
same,Antibiotic susceptibility (R/S/I),S. aureus AR215,S
clorofloxacin [reference compound],MIC80,"S. aureus ATCC25923; Table 2, read-out: MIC80",40.52 µM
same,MIC80,[2],.30 µM
same,MIC80,[3],.66 µM
same,MIC80,S. aureus AR222 [4],0.52 µM
"Cc1onc(-c2ccccc2)c1C(=O)N[C@@H]1C(=O)N2[C@@H]1SC(C)(C)[C@@H]2C(=O)O [OXA, Oxacillin]",Antibiotic susceptibility (R/S/I),S. aureus ATCC 25923,S
same,Antibiotic susceptibility (R/S/I),S. aureus AR222 [1],S
same,Resistance of the strain to the antibiotic,S. aureus AR217,resistant
same,Antibiotic susceptibility (R/S/I),S. aureus AR217,R
same,Resistance of the strain to the antibiotic,S. aureus AR215,resistant
same,Antibiotic susceptibility (R/S/I),S. aureus AR215,R
